# Measured values from US7709458B2, “Method for inhibiting cancer cell proliferation or increasing cancer cell apoptosis” (priority 2004, dated 2010).
# Entries after “also recorded” stand apart in the source; their conditions may differ.
# Tested on: H508 human colon cancer cells
# Assay: H508 colon cancer cell proliferation assay (sulforhodamine B colorimetric assay)
# Assay type: cell-based
# Conditions: for effect on EGF-induced H508 cell proliferation: EGF 1 ng/ml; for effect on acetylcholine-induced H508 cell proliferation: acetylcholine 300 μM
# Protocol: H508 colon cancer cell culture. H508 human colon cancer cells were grown in RPMI 1640 (ATCC) supplemented with 10% fetal bovine serum (FBS) (Biowhittaker). Adherent cultures were passaged weekly at subconfluence after trypsinization. Cultures were maintained in incubators at 37° C. in an atmosphere of 5% CO2 and 95% air.
# H508 colon cancer cell proliferation assay. Cell proliferation was determined using the sulforhodamine B (SRB) colorimetric assay (Skehan et al., 1990). Cells were seeded in 96-well plates (Corning Glass Works, Corning, N.Y.) at approx. 10% confluence and allowed to attach for 24 h. Growth medium was removed and fresh medium without FBS and containing the indicated concentration of test agent was added. Cells were incubated for the indicated periods of time at 37° C. in an atmosphere of 5% CO2 and 95% air. After incubation, cells were treated for 30 min with 0.4% (w/v) SRB dissolved in 1% acetic acid. Protein-bound dye was extracted with unbuffered 10 mM Tris base. Absorbance was measured at 560 nm using a computer-interfaced, 96-well microtiter plate reader.
# c-di-GMP inhibits proliferation of human colon cancer cells. The potential therapeutic actions of c-di-GMP were examined on basal and growth factor-stimulated proliferation of cells derived from a moderately differentiated human cecal adenocarcinoma (H508 cells) that express M3 muscarinic (M3R) and epidermal growth factor (EGF) receptors (EGFR) (Cheng et al., 2003). Cell proliferation was determined using the validated sulforhodamine B (SRB) calorimetric assay (Skehan et al., 1990). H508 cells were incubated in the absence or presence of a growth stimulant, acetylcholine (300 μM) and EGF (1 ng/ml) alone or with increasing concentrations of c-di-GMP (0.5-50 μM). After a 5-day incubation, the highest concentration of c-di-GMP tested, 50 μM, reduced basal H508 cell proliferation by approx. 15% (FIG. 1; p<0.05 compared to control, Student's unpaired t-test).
# [1] = increasing concentrations 0.5-50 μM, 5 days
compound,measurement,setting,value
"Nc1nc(=O)c2ncn([C@@H]3OC4COP(=O)(O)O[C@H]5[C@@H](O)[C@H](n6cnc7c(=O)nc(N)[nH]c76)O[C@@H]5COP(=O)(O)OC4C3O)c2[nH]1 (some centres unmarked) [c-di-GMP, Bis(3′-->5′)-cyclic diguanylic acid]",effect on basal H508 cell proliferation,"50 μM, 5 days incubation",inhibited
same,effect on EGF-induced H508 cell proliferation,"50 μM, 5 days",reduced to basal levels
same,effect on acetylcholine-induced H508 cell proliferation,"50 μM, 5 days",reduced to basal levels
same,reduction of basal H508 cell proliferation,"50 μM, basal (no stimulant), 5-day incubation",approx. 15%
same,effect on EGF-induced H508 cell proliferation,[1],inhibit; also recorded: progressively inhibited
same,effect on acetylcholine-induced H508 cell proliferation,[1],inhibit; also recorded: progressively inhibited
same,effect on basal H508 cell proliferation,"increasing concentrations, 5 days (FIG. 1)",inhibit
same,effect on basal H508 cell proliferation,"lower concentrations (below 50 μM), 5 days",did not significantly alter basal proliferation; also recorded: did not alter basal cell proliferation
